Columns and labels:
[1] = Systemic cytokines in CT26 tumor model after intratumoral injection; assay type: in vivo, Balb/c mice; details: 2 h after intratumoral injection
Description: FIGS. 17A-C (A) Outline of in vivo tumor model experiment. (B) Systemic IL-6 levels measured in the serum 2 h after intertumoral injection of compounds. (C) Systemic TNF-α levels measured in the serum 2 h after intertumoral injection of compounds.
0.2×10^6 CT-26 cells were injected subcutaneously into the flank of 6-week-old Balb/c mice (n=10 per group) in 100 μL of PBS. The tumor size was monitored on alternating days. Tumor volumes were measured using the equation V=1/2×L×W×W. When the tumors reached a size of approximately 75 mm3 (day 11), treatment was started. Various formulations (20 nmols of each agonist or PBS) were injected peritumorally every 4 days […]. Mice were euthanized when the tumors reached 20 mm in any linear dimension. Five mice for each group were used for blood analysis. Blood was collected two days post the first injection for hematological toxicity analysis and two hours post the second injection for systemic cytokine analysis.
After 11 days, the tumors were established and intratumoral injections were administered with the SMIP adjuvant and adjuvant dimers. At 2 h and 24 h after these injections, serum and blood were collected to examine systemic cytokines in the serum and perform a hematological analysis on the blood to better quantify adjuvant toxicity. Similar to the OVA vaccination model, the dimer adjuvants induced baseline levels of IL-6 and TNF-α as measured in the serum.

[2] = with CPG in vaccine formulations; vaccine protective effects maintained; cited from earlier work
[3] = system: NF-κB in RAW-Blue 264.7 macrophage cells; assay: RAW-Blue 264.7 macrophage NF-κB assay (polymeric immunomodulator); assay type: cell-based; details: incubated 18 h at 37° C; QUANTIBlue absorbance 620 nm
Description: Cells were incubated with each compound for 18 h at 37° C. Supernatant was removed and incubated with QUANTIBlue for 1 h, and the absorbance at 620 nm was measured. Error bars represent standard deviation (SD). Samples were run in triplicate.
RAW264.7 Macrophage (RAW-Blue) NF-κB assay: RAW-Blue cells (passage 5-15) were plated in a 96 well plate at a density of 100,000 cells/well in 180 μL DMEM containing 10% heat-inactivated FBS (HI-FBS) and selective antibiotics. The cells were treated with agonists for […] at 37° C. and 5% CO2. NF-κB activity was measured by a QUANTI-Blue (InvivoGen) assay and the absorbance was measured at 620 nm using a Multiskan FC plate reader (Thermo Scientific).

BMDMs [4] = assay: TNF-α in supernatant of BMDMs by ELISA; assay type: cell-based, C57Bl/6 mice; details: treated BMDMs; compared with pTLR7/8 and mTLR7/8
BMDMs [5] = assay: Flow cytometry of costimulatory molecules CD40 and CD86 on BMDMs; assay type: cell-based, C57Bl/6 mice; details: 18 h at 37° C
Description: FIGS. 2A-B show immune activation as measured by costimulatory molecules CD40 (FIG. 2A) and CD86 (FIG. 2B) on BMDMs. Cells were incubated with each compound for 18 h at 37° C. Error bars represent SD. Samples were run in triplicate. […] Each experiment was repeated thrice with similar results.
Flow Cytometry for Cell Surface Marker Upregulation: BMDCs were plated in untreated 12-well plates at 1×10^6 cells/mL and incubated with agonists in culture media for 18 h at 37° C. with 5% CO2. The cells were released from the plate by pipetting vigorously and centrifuged at 2500 RPM at 4° C. for 10 min. The cell pellet was resuspended in cold FACS buffer (PBS, 10% FBS, and 0.1% sodium azide) buffer (300 μL) and incubated with CD16/32 FcR blocking antibodies (1.0 μg/1×10^6 cells) on ice for 15 min. The cell suspension was pelleted, and the supernatant was removed. Next, the cell pellet was resuspended in cold FACS buffer (100 μL) and stained for CD86 and CD40 in the dark for 30 min. The samples were then washed twice with 300 μL FACS buffer. The pelleted cells were resuspended in cold FACS buffer (200 μL) and kept on ice until being loaded onto the flow cytometer for analysis.

OVA = assay: Serum anti-OVA IgG titers after OVA immunization (ELISA); assay type: in vivo, C57Bl/6 mice; details: immunized days 0 and 14; ELISA at 3 weeks
cells from the dLNs = assay: Cytokines from draining lymph node cells re-stimulated with OVA (CBA); assay type: in vivo, C57Bl/6 mice; details: re-stimulated with OVA for 48 hours

CCCCCCCCCCCCCCCCCC(=O)NCCCCOn1c(CCCC)nc2c(N)nc3ccccc3c21 [Compound 3M-052]
systemic IL-6 levels in serum [1]: comparable
systemic TNF-α levels in serum [1]: comparable

CCOCc1nc2c(N)nc3ccccc3c2n1CC(C)(C)O [Compound R848, resiquimod]
systemic IL-6 levels in serum [1]: high levels
systemic TNF-α levels in serum [1]: high levels

COc1cc(CNC(=O)CCCC/C=C/C(C)C)ccc1O [capsaicin]
pro-inflammatory systemic IL-6 and TNF-α levels [2]: reduce

C=CCc1ccc(O)c(-c2ccc(O)c(CC=C)c2)c1 [honokiol]
pro-inflammatory systemic IL-6 and TNF-α levels [2]: reduce

CCCCc1nc2c(N)nc3ccccc3c2n1Cc1ccc(CNC(=O)CCCCCNC(=O)CCC(NC(=O)CNC(=O)C(CCC(=O)NCCCCCC(=O)NCc2ccc(Cn3c(CCCC)nc4c(N)nc5ccccc5c43)cc2)NC(=O)CNC(=O)C(CCC(=O)NCCCCCC(=O)NCc2ccc(Cn3c(CCCC)nc4c(N)nc5ccccc5c43)cc2)NC(=O)CNC(=O)C(CCC(=O)NCCCCCC(=O)NCc2ccc(Cn3c(CCCC)nc4c(N)nc5ccccc5c43)cc2)NC(=O)CNC(=O)C(CCC(=O)NCCCCCC(=O)NCc2ccc(Cn3c(CCCC)nc4c(N)nc5ccccc5c43)cc2)NC(=O)CCC(=O)N2Cc3ccccc3-c3nnn(CCCCCC(=O)NC(Cc4ccc(O)c(O)c4)C(=O)NC(Cc4ccc(O)c(O)c4)C(=O)NC(Cc4ccc(O)c(O)c4)C(=O)NC(Cc4ccc(O)c(O)c4)C(N)=O)c3-c3ccccc32)C(N)=O)cc1 (centres unmarked) [pTLR7/8_mod]
NF-κB levels [3]: increased
TNF-α concentration in supernatant (BMDMs [4]): smallest increase
levels of CD40 (BMDMs [5]): greatest increase
levels of CD86 (BMDMs [5]): greatest increase
serum titers of anti-OVA antibodies (OVA): Highest
amount of IL-6 (FIG. 6B) produced by dLN cells (cells from the dLNs): highest levels
amount of IL-23 (FIG. 6A) produced by dLN cells (cells from the dLNs): highest levels
amount of TNF-α (FIG. 6C) produced by dLN cells (cells from the dLNs): highest levels

Source: patent US20250041408A1, “SMALL MOLECULE IMMUNOPOTENTIATOR CONJUGATES OF NFKB ACTIVATORS AS ADJUVANTS WITH ENHANCED EFFICACY AND REDUCED TOXICITY” (THE UNIVERSITY OF CHICAGO, priority 2021, published 2025)
